In US8742106B2 (Novartis AG, priority 2009, dated 2014) one finds Kd and Ki data, which are given here for 17 compounds.

In test [1] the target is T1, human orexin 1 receptors (Homo sapiens (Human), UniProt O43613). Put plainly: Radioligand Binding Assay II ([3H]-SB649868 competition, cell membranes). The conditions noted are these: read-out: binding II hOx1R Kd. As for the experimental part:
(§1) Radioligand Binding Assay II
(§2) For crude cell membrane preparations, cells (CHO, Chinese hamster ovary or HEK, human embryonic kidney) expressing human orexin 1 or human orexin 2 receptors, were washed with HEPES (10 mM, pH 7.5), scraped off the culture plates with the same buffer, and centrifuged at 4° C. for 5 min at 2500×g. The cell pellet was either stored at −80° C. or used directly. Before the experiments, cell membranes were re-suspended in binding assay buffer (10 mM HEPES, 0.5% (w/v) bovine serum albumin, pH 7.5) by homogenisation with a Polytron homogeniser at 50 Hz for 20 s. Cell membranes were also used as made available by commercial providers.
(§3) Bound radioactivity was measured, and data were analysed with the program XLFIT or Graphpad Prism. Protein concentration was determined according to the Bradford/BioRad Protein Assay Kit.
In competition experiments, cell homogenates (150 μl) were incubated in assay buffer (10 mM HEPES, pH 7.5, 0.5% (w/v) bovine serum albumin, 5 mM MgCl2, 1 mM CaCl2, and tween 0.05%) for 1 h at room temperature with about 1 nM of the radioligand [^3H]-SB649868, 66 Ci/mmole, 50 μl), and with various concentrations of compounds of the invention (50 μl) in triplicates; non-specific binding was determined in the presence of almorexant (10 μM). Reactions were terminated by vacuum filtration, 3 washes of ice cold wash buffer (Tris-HCl pH 7.4/10 mM, with NaCl 154 mM). Competition data is expressed in Table 2 as Kd [μM].

Test [2] has as its target T2, human orexin 2 receptors (Homo sapiens (Human), UniProt O43614). The description is as above. Conditions: read-out: binding II hOx2R Kd. As for the experimental part:
as §1, §2, §3
In competition experiments, cell homogenates (150 μl) were incubated in assay buffer (10 mM HEPES, pH 7.5, 0.5% (w/v) bovine serum albumin, 5 mM MgCl2, 1 mM CaCl2, and tween 0.05%) for 1 h at room temperature with about 1 nM of the radioligand [^3H]-SB649868, 66 Ci/mmole, 50 μl), and with various concentrations of compounds of the invention (50 μl) in triplicates; non-specific binding was determined in the presence of almorexant (10 μM). Reactions were terminated by vacuum filtration, 3 washes of ice cold wash buffer (Tris-HCl pH 7.4/10 mM, with NaCl 154 mM).

Test [3] deals with T1, human orexin 1 receptors. Put plainly: Calcium Accumulation in Cells (FLIPR), antagonism of orexin A. The class given is cell-based. The conditions noted are these: antagonism of orexin A, Cheng-Prusoff corrected; read-out: FLIPR hOx1R Ki.
Test [4] addresses T2, human orexin 2 receptors. The description is as above. The class given is cell-based. The conditions noted are these: antagonism of orexin A, Cheng-Prusoff corrected; read-out: FLIPR hOx2R Ki. The method, boiled down: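 Antagonism was measured as block of orexin A-evoked Ca²⁺ fluorescence (FLIPR), with orexin A added one hour after test compound (usually 10^−9–10^−5 M), which was first read alone for agonist activity. Human orexin 2 receptor cells were dye-loaded with 2 μM Fluo4-AM and 0.1 mM probenecid for 1 h.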

T1 sequence (O43613 whole entry): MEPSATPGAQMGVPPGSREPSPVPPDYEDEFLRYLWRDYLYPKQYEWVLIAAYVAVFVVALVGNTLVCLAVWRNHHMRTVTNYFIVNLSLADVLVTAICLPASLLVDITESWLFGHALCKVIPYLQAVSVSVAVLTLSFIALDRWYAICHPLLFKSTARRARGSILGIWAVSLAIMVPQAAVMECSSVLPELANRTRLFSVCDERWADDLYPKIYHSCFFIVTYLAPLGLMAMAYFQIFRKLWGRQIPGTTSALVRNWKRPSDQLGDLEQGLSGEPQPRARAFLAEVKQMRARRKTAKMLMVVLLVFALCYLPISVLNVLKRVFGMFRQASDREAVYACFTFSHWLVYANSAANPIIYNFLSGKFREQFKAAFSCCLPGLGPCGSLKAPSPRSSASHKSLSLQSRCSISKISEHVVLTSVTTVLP
T2 sequence (O43614 whole entry): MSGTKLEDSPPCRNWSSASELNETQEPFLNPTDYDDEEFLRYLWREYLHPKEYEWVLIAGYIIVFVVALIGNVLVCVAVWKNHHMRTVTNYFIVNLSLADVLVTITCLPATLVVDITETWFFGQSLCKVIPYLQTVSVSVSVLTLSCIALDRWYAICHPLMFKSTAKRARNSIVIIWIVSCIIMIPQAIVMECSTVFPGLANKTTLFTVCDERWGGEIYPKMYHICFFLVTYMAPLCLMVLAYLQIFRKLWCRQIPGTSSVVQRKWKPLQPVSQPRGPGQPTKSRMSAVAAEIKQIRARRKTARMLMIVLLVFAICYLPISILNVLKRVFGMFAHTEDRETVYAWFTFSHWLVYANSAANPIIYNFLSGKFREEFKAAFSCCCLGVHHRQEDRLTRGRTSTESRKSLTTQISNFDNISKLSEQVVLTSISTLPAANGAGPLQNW

What is called Kd is the constant that tells how readily two partners part at equilibrium. The Ki is a dissociation constant, usually derived from enzyme kinetics or from competition with a known ligand. Regarding `Cc1cc(OCC(=O)NC(C)c2ccc3c(ccn3C)c2)nc2c1c(C1CC1)nn2C` (centres unmarked) [Example 6.59, 2-(3-cyclopropyl-1,4-dimethyl-1H-pyrazolo[3,4-b]pyridin-6-yloxy)-N-(1-(1-methyl-1H-indol-5-yl)ethyl)acetamide], the Kd at human orexin 1 receptors [1] came out at 70 nM; on human orexin 2 receptors [2], 162 nM. Further, the values for the Ki at human orexin 1 receptors [3] and at human orexin 2 receptors [4] were 127 nM and 63 nM, respectively.

Take `Cc1ccc([C@H](C)NC(=O)COc2cc(C)c3c(-c4cnn(C)c4)nn(C)c3n2)cc1` [Example 4.6, (S)-2-(1,4-dimethyl-3-(1-methyl-1H-pyrazol-4-yl)-1H-pyrazolo[3,4-b]pyridin-6-yloxy)-N-(1-p-tolylethyl)acetamide]: the Kd on human orexin 1 receptors [1] was found to be 76 nM; on human orexin 2 receptors [2] it was 82 nM. Further, the Ki at human orexin 1 receptors [3] was 247 nM; at human orexin 2 receptors [4], 89 nM.

For the compound `COc1ccccc1-c1nn(C)c2nc(OCC(=O)N[C@@H](C)c3ccc(C)cc3)ccc12` [Example 6.24, (S)-2-(3-(2-methoxyphenyl)-1-methyl-1H-pyrazolo[3,4-b]pyridin-6-yloxy)-N-(1-p-tolylethyl)acetamide], the Kd amounted to 45 nM on human orexin 1 receptors [1] and 150 nM on human orexin 2 receptors [2]. Also, the Ki at human orexin 1 receptors [3] is 133 nM; at human orexin 2 receptors [4], 105 nM.

`Cc1ccc2c(n1)CC[C@@H]2NC(=O)COc1cc(C(F)F)c2c(-c3cc(C)oc3C)nn(C)c2n1` [Example 6.38, (S)-2-(4-(difluoromethyl)-3-(2,5-dimethylfuran-3-yl)-1-methyl-1H-pyrazolo[3,4-b]pyridin-6-yloxy)-N-(2-methyl-6,7-dihydro-5H-cyclopenta[b]pyridin-5-yl)acetamide]: the Kd at human orexin 1 receptors [1] was determined as 123 nM; at human orexin 2 receptors [2], 271 nM. Also, the Ki at human orexin 1 receptors [3] is 91 nM; on human orexin 2 receptors [4], 64 nM.

`Cc1ccc2c(c1)CC[C@@H]2NC(=O)COc1cc(C)c2c(C3CC3)nn(C)c2n1` [Example 6.44, (S)-2-(3-cyclopropyl-1,4-dimethyl-1H-pyrazolo[3,4-b]pyridin-6-yloxy)-N-(5-methyl-2,3-dihydro-1H-inden-1-yl)acetamide]: the values for the Kd on human orexin 1 receptors [1] and at human orexin 2 receptors [2] were 67 nM and 28 nM, respectively. For the same compound, the Ki on human orexin 1 receptors [3] was 223 nM; at human orexin 2 receptors [4], 14 nM.

On to `COc1ccc([C@H](C)NC(=O)COc2cc(C(F)F)c3c(-c4ccccc4)nn(C)c3n2)cc1` [Example 6.17, (S)-2-(4-(difluoromethyl)-1-methyl-3-phenyl-1H-pyrazolo[3,4-b]pyridin-6-yloxy)-N-(1-(4-methoxyphenyl)ethyl)acetamide], for which the Kd is 11 nM at human orexin 1 receptors [1] and 7 nM on human orexin 2 receptors [2]. Besides, the Ki at human orexin 1 receptors [3] is 19 nM; on human orexin 2 receptors [4], 2 nM.

In the case of `Cc1ccc([C@H](C)NC(=O)COc2cc(C)c3c(C(C)C)nn(C)c3n2)cc1` [Example 6.26, (S)-2-(3-isopropyl-1,4-dimethyl-1H-pyrazolo[3,4-b]pyridin-6-yloxy)-N-(1-p-tolylethyl)acetamide], the equilibrium dissociation constant (Kd) on human orexin 1 receptors [1] came out at 119 nM; on human orexin 2 receptors [2] it was 76 nM. Further, the Ki worked out at 164 nM at human orexin 1 receptors [3] and 32 nM at human orexin 2 receptors [4].

On to `COc1ccc(C(C)NC(=O)COc2cc(C(F)F)c3c(-c4ccccc4)nn(C)c3n2)cn1` (centres unmarked) [Example 6.22, 2-(4-(difluoromethyl)-1-methyl-3-phenyl-1H-pyrazolo[3,4-b]pyridin-6-yloxy)-N-(1-(6-methoxypyridin-3-yl)ethyl)acetamide], for which the Kd on human orexin 1 receptors [1] was determined as 56 nM; at human orexin 2 receptors [2], 42 nM. For the same compound, the results for the Ki on human orexin 1 receptors [3] and on human orexin 2 receptors [4] were 175 nM and 37 nM, respectively.

On to `Cc1cc(-c2nn(C)c3nc(OCC(=O)NC(C)c4c(C)nn(C)c4C)cc(C)c23)c(C)o1` (centres unmarked) [Example 6.33, 2-(3-(2,5-dimethylfuran-3-yl)-1,4-dimethyl-1H-pyrazolo[3,4-b]pyridin-6-yloxy)-N-(1-(1,3,5-trimethyl-1H-pyrazol-4-yl)ethyl)acetamide], for which the Kd on human orexin 1 receptors [1] stood at 14 nM; at human orexin 2 receptors [2], 126 nM. The Ki at human orexin 1 receptors [3] amounted to 11 nM; at human orexin 2 receptors [4], 170 nM.

`Cc1ccc([C@H](C)NC(=O)COc2cc(C)c3c(-c4cnccn4)nn(C)c3n2)cc1` [Example 4.8, (S)-2-(1,4-dimethyl-3-(pyrazin-2-yl)-1H-pyrazolo[3,4-b]pyridin-6-yloxy)-N-(1-p-tolylethyl)acetamide]: the figures for the Kd on human orexin 1 receptors [1] and at human orexin 2 receptors [2] were 20 nM and 22 nM, respectively. For the same compound, the results for the Ki at human orexin 1 receptors [3] and on human orexin 2 receptors [4] were 52 nM and 15 nM, respectively.

Turning to `COc1ccc2c(c1)CC[C@@H]2NC(=O)C(C)Oc1cc(C)c2c(C3CC3)nn(C)c2n1` (single isomer, unassigned) [Example 6.71, (R or S)-2-(3-cyclopropyl-1,4-dimethyl-1H-pyrazolo[3,4-b]pyridin-6-yloxy)-N-((S)-5-methoxy-2,3-dihydro-1H-inden-1-yl)propanamide], the Kd at human orexin 1 receptors [1] stood at 589 nM; on human orexin 2 receptors [2], 95 nM. The Ki on human orexin 1 receptors [3] was found to be 348 nM; at human orexin 2 receptors [4] it was 55 nM.

As for `Cc1ccc([C@H](C)NC(=O)COc2cc(C)c3c(-c4cscn4)nn(C)c3n2)cc1` [Example 4.10, (S)-2-(1,4-dimethyl-3-(thiazol-4-yl)-1H-pyrazolo[3,4-b]pyridin-6-yloxy)-N-(1-p-tolylethyl)acetamide], the results for the Kd at human orexin 1 receptors [1] and on human orexin 2 receptors [2] were 5 nM and 6 nM, respectively. The Ki at human orexin 1 receptors [3] and on human orexin 2 receptors [4] was 5 nM in each case.

Consider `COc1ccnc(-c2nn(C)c3nc(OCC(=O)N[C@@H](C)c4ccc(C)cc4)cc(C)c23)c1` [Example 6.37, (S)-2-(3-(4-methoxypyridin-2-yl)-1,4-dimethyl-1H-pyrazolo[3,4-b]pyridin-6-yloxy)-N-(1-p-tolylethyl)acetamide], for which the Kd is 6 nM at human orexin 1 receptors [1] and 17 nM on human orexin 2 receptors [2]. For the same compound, the Ki turned out to be 7 nM at human orexin 1 receptors [3] and 10 nM at human orexin 2 receptors [4].

In the case of `COc1ccc2c(c1)CC[C@@H]2NC(=O)COc1cc(C(F)(F)F)c2c(C3CC3)nn(C)c2n1` [Example 6.43, (S)-2-(3-cyclopropyl-1-methyl-4-(trifluoromethyl)-1H-pyrazolo[3,4-b]pyridin-6-yloxy)-N-(5-methoxy-2,3-dihydro-1H-inden-1-yl)acetamide], the Kd at human orexin 1 receptors [1] is 206 nM; on human orexin 2 receptors [2], 18 nM. Besides, the Ki is 234 nM on human orexin 1 receptors [3] and 3 nM at human orexin 2 receptors [4].

For the compound `Cc1ccc([C@H](C)NC(=O)COc2cc(C)c3c(-c4ncccc4F)nn(C)c3n2)cc1` [Example 4.1, (S)-2-((3-(3-fluoropyridin-2-yl)-1,4-dimethyl-1H-pyrazolo[3,4-b]pyridin-6-yl)oxy)-N-(1-(p-tolyl)ethyl)acetamide], the values for the Kd at human orexin 1 receptors [1] and on human orexin 2 receptors [2] were 27 nM and 22 nM, respectively. The Ki on human orexin 1 receptors [3] was determined as 133 nM; at human orexin 2 receptors [4], 35 nM.

Consider `COc1ccnc(-c2nn(C)c3nc(OCC(=O)N[C@@H](C)c4ccc(C)cc4)cc(C)c23)n1` [Example 5.3, (S)-2-(3-(4-methoxypyrimidin-2-yl)-1,4-dimethyl-1H-pyrazolo[3,4-b]pyridin-6-yloxy)-N-(1-p-tolylethyl)acetamide], for which the Kd on human orexin 1 receptors [1] amounted to 7 nM; on human orexin 2 receptors [2], 19 nM. For the same compound, the Ki at human orexin 1 receptors [3] came out at 10 nM; on human orexin 2 receptors [4], 39 nM.

`Cc1ccc([C@H](C)NC(=O)COc2cc(C)c3c(-c4cc(C)oc4C)nn(C)c3n2)cc1` [Example 6.30, (S)-2-(3-(2,5-dimethylfuran-3-yl)-1,4-dimethyl-1H-pyrazolo[3,4-b]pyridin-6-yloxy)-N-(1-p-tolylethyl)acetamide]: the Kd on human orexin 1 receptors [1] stood at 19 nM; on human orexin 2 receptors [2] it was 168 nM. Moreover, the Ki at human orexin 1 receptors [3] came to 10 nM; on human orexin 2 receptors [4] it was 62 nM.
